In PubChem BioAssay AID1963963 (Molecular Pharmacology Branch, DTP, NCI, 2024):
Values belong to the molecule of their own block, whether it stands above or below them.

Tested on: 958667-338-R-J2-PDC tumor spheroids viability
Test: Anticancer human tumor 958667-338-R-J2-PDC patient-derived colon adenocarcinoma cell line growth inhibition [PI3K]
Details: spheroids with HUVEC and MSC; for IC50: curve of first compound; for viability, T/C: stronger effect = lower value
Method in brief: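 High-throughput combination screen: PI3K inhibitors crossed with targeted small molecules on complex spheroids of tumor cells, HUVEC and MSCs at 37 degrees C, 5% CO2. Top concentration was at or near clinical Cmax (otherwise 10 microM), with half-log decrements.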

[1] = second compound 0.00316 µM, first compound 0.0316 µM
[2] = second compound 0.00316 µM, first compound 0.1 µM
[3] = second compound 0.00316 µM, first compound 0.316 µM
[4] = second compound 0.00316 µM, first compound 1 µM
[5] = second compound 0.00316 µM, first compound 3.16 µM
[6] = second compound 0.00316 µM, first compound 10 µM
[7] = second compound 0.01 µM, first compound 0.0316 µM
[8] = second compound 0.01 µM, first compound 0.1 µM
[9] = second compound 0.01 µM, first compound 0.316 µM
[10] = second compound 0.01 µM, first compound 1 µM
[11] = second compound 0.01 µM, first compound 3.16 µM
[12] = second compound 0.01 µM, first compound 10 µM
[13] = second compound 0.0316 µM, first compound 0.0316 µM
[14] = second compound 0.0316 µM, first compound 0.1 µM
[15] = second compound 0.0316 µM, first compound 0.316 µM
[16] = second compound 0.0316 µM, first compound 1 µM
[17] = second compound 0.0316 µM, first compound 3.16 µM
[18] = second compound 0.0316 µM, first compound 10 µM
[19] = second compound 0.1 µM, first compound 0.0316 µM
[20] = second compound 0.1 µM, first compound 0.1 µM
[21] = second compound 0.1 µM, first compound 0.316 µM
[22] = second compound 0.1 µM, first compound 1 µM
[23] = second compound 0.1 µM, first compound 3.16 µM
[24] = second compound 0.1 µM, first compound 10 µM
[25] = second compound 0.316 µM, first compound 0.0316 µM
[26] = second compound 0.316 µM, first compound 0.1 µM
[27] = second compound 0.316 µM, first compound 0.316 µM
[28] = second compound 0.316 µM, first compound 1 µM
[29] = second compound 0.316 µM, first compound 3.16 µM
[30] = second compound 0.316 µM, first compound 10 µM
[31] = second compound 1 µM, first compound 0.0316 µM
[32] = second compound 1 µM, first compound 0.1 µM
[33] = second compound 1 µM, first compound 0.316 µM
[34] = second compound 1 µM, first compound 1 µM
[35] = second compound 1 µM, first compound 3.16 µM
[36] = second compound 1 µM, first compound 10 µM
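Further: spheroids exposed to compounds for seven days before readout.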

IC50 (second compound 0.00316 µM): 5.88 µM
IC50 (second compound 0.01 µM): 6.02 µM
IC50 (second compound 0.0316 µM): 4.97 µM
IC50 (second compound 0.1 µM): 4.08 µM
IC50 (second compound 0.316 µM): < 0.0316 µM
IC50 (second compound 1 µM): < 0.0316 µM
Structure (SMILES): CCCS(=O)(=O)Nc1ccc(F)c(C(=O)c2c[nH]c3ncc(-c4ccc(Cl)cc4)cc23)c1F + COc1c(OCCCN2CCOCC2)ccc2c3n(c(=NC(=O)c4cnc(N)nc4)nc12)CCN3
viability, T/C [1]: 126%
viability, T/C [2]: 93.4%
viability, T/C [3]: 94.4%
viability, T/C [4]: 109%
viability, T/C [5]: 99.5%
viability, T/C [6]: 7.46%
viability, T/C [7]: 89.1%
viability, T/C [8]: 93.7%
viability, T/C [9]: 111%
viability, T/C [10]: 84.8%
viability, T/C [11]: 110%
viability, T/C [12]: 12.4%
viability, T/C [13]: 63%
viability, T/C [14]: 67.5%
viability, T/C [15]: 74.5%
viability, T/C [16]: 74.5%
viability, T/C [17]: 103%
viability, T/C [18]: 8.73%
viability, T/C [19]: 67.4%
viability, T/C [20]: 52.2%
viability, T/C [21]: 61.7%
viability, T/C [22]: 61.8%
viability, T/C [23]: 63.2%
viability, T/C [24]: 10.3%
viability, T/C [25]: 31.6%
viability, T/C [26]: 49.6%
viability, T/C [27]: 38.3%
viability, T/C [28]: 32.2%
viability, T/C [29]: 37.5%
viability, T/C [30]: 6.35%
viability, T/C [31]: 19%
viability, T/C [32]: 23.5%
viability, T/C [33]: 16.7%
viability, T/C [34]: 20.8%
viability, T/C [35]: 19.2%
viability, T/C [36]: 5.1%

IC50 (second compound 0.00316 µM): > 10 µM
IC50 (second compound 0.01 µM): > 10 µM
IC50 (second compound 0.0316 µM): > 10 µM
IC50 (second compound 0.1 µM): 4.27 µM
IC50 (second compound 0.316 µM): < 0.0316 µM
IC50 (second compound 1 µM): < 0.0316 µM
Structure (SMILES): CNC(=O)c1ccc(N2C(=S)N(c3ccc(C#N)c(C(F)(F)F)c3)C(=O)C2(C)C)cc1F + COc1c(OCCCN2CCOCC2)ccc2c3n(c(=NC(=O)c4cnc(N)nc4)nc12)CCN3
viability, T/C [1]: 95.2%
viability, T/C [2]: 97.8%
viability, T/C [3]: 91.4%
viability, T/C [4]: 96.5%
viability, T/C [5]: 109%
viability, T/C [6]: 82.1%
viability, T/C [7]: 81.9%
viability, T/C [8]: 88.9%
viability, T/C [9]: 90.1%
viability, T/C [10]: 82.7%
viability, T/C [11]: 105%
viability, T/C [12]: 92%
viability, T/C [13]: 68.5%
viability, T/C [14]: 74.7%
viability, T/C [15]: 74.7%
viability, T/C [16]: 68.2%
viability, T/C [17]: 92.7%
viability, T/C [18]: 67.8%
viability, T/C [19]: 54.9%
viability, T/C [20]: 61.4%
viability, T/C [21]: 56.2%
viability, T/C [22]: 59.7%
viability, T/C [23]: 50.5%
viability, T/C [24]: 42.8%
viability, T/C [25]: 40.9%
viability, T/C [26]: 47.6%
viability, T/C [27]: 38.8%
viability, T/C [28]: 33.2%
viability, T/C [29]: 31.5%
viability, T/C [30]: 22.7%
viability, T/C [31]: 19.5%
viability, T/C [32]: 20.9%
viability, T/C [33]: 17.4%
viability, T/C [34]: 18.3%
viability, T/C [35]: 16%
viability, T/C [36]: 9.91%
